Experimental findings from ChEMBL document CHEMBL4421722, “Inhibitors of protein prenyltransferases” (2013) are described below.

The species entered for the assay is Rattus norvegicus. The experiment in a line: Inhibition of rat recombinant geranylgeranyltransferase type I expressed in Escherichia coli assessed as residual enzyme activity for geranylgeranylation of K-Ras4B at 50 uM incubated for 30 mins in presence of [3H]GGPP by scintillation counting assay relative to control.

Regarding `Cc1ccc(S(=O)(=O)N2[C@@H](c3ccc(Br)cc3)C(C(=O)O)=CC[C@H]2c2ccccc2F)cc1`, the Activity was found to be 72.8%.
For `Cc1ccc([C@@H]2C[C@@H](SCCC(C)C)[C@H](C(=O)O)CN2S(C)(=O)=O)cc1` the value was 93.4%.
Next, `Cc1ccc(S(=O)(=O)N2[C@@H](c3cccc(F)c3)C(C(=O)O)=CC[C@H]2c2ccccc2)cc1`: 63.7%; `CCOc1ccc([C@@H]2CC=C(C(=O)O)[C@H](c3cccc(C)c3)N2S(=O)(=O)c2ccc(C)cc2)cc1`: 65.3%.
Next, `COc1ccc([C@@H]2CC=C(C(=O)O)[C@H](c3cccc(F)c3)N2S(=O)(=O)c2ccccc2C)cc1`: 86.6%; `Cc1ccc(S(=O)(=O)N2[C@@H](c3cccc(F)c3)C(C(=O)O)=CC[C@H]2c2ccc(Cl)c(Cl)c2)cc1`: 45.1%; `CCOc1ccc([C@@H]2C[C@@H](SCCC(C)C)[C@H](C(=O)O)CN2S(=O)(=O)c2ccc(C)cc2)cc1`: 95.9%.
Consider `Cc1ccc(S(=O)(=O)N2[C@@H](c3cccc(Cl)c3)C(C(=O)O)=CC[C@H]2c2cccs2)cc1`, for which the Activity turned out to be 79.5%.
In the case of `Cc1ccc([C@@H]2CC=C(C(=O)O)[C@H](c3ccc(Br)cc3)N2S(=O)(=O)c2ccccc2)cc1`, the Activity came to 78.4%.
`Cc1ccc(S(=O)(=O)N2[C@@H](c3cccc(F)c3)C(C(=O)O)=CC[C@H]2c2ccc(F)cc2)cc1`: the Activity was determined as 70.1%.
As for `C=CCS[C@@H]1C[C@@H](c2ccc(OC)cc2)N(S(=O)(=O)c2ccccc2)C[C@H]1C(=O)O`, the Activity was determined as 106%.
For the compound `CCCCCCS[C@@H]1C[C@@H](c2ccc(C)cc2)N(S(=O)(=O)c2ccc(C)cc2)C[C@H]1C(=O)O`, the Activity was 70.9%.
As to `Cc1ccc([C@H]2C(C(=O)O)=CC[C@@H](c3cccc(Cl)c3)N2S(=O)(=O)c2ccc(C)cc2)cc1`, the Activity turned out to be 66.1%.
Next, `CCS[C@@H]1C[C@@H](c2ccc(CC)cc2)N(S(=O)(=O)c2ccc(C)cc2)C[C@H]1C(=O)O`: 84.6%; `Cc1ccc(S(=O)(=O)N2[C@@H](c3ccc(Cl)cc3)C(C(=O)O)=CC[C@H]2c2ccc(C(C)C)cc2)cc1`: 57.6%.
As for `Cc1ccc(S(=O)(=O)N2[C@@H](c3cccc(C)c3)C(C(=O)O)=CC[C@H]2c2ccccc2F)cc1`, the Activity is 62.8%.
Next, `CS(=O)(=O)N1[C@@H](c2cccc(F)c2)C(C(=O)O)=CC[C@H]1c1ccccc1`: 86.6%; `Cc1ccc([C@@H]2C[C@@H](SCc3ccccc3)[C@H](C(=O)O)CN2S(=O)(=O)c2ccc(C)cc2)cc1`: 93.1%.
For `Cc1ccc([C@@H]2CC=C(C(=O)O)[C@H](c3ccc(Cl)cc3)N2S(=O)(=O)c2ccc(Cl)cc2)cc1` the value was 63.8%.
Next, `Cc1ccc(S[C@@H]2C[C@@H](c3ccc(Cl)cc3)N(S(=O)(=O)c3ccccc3C)C[C@H]2C(=O)O)cc1`: 74.8%; `COc1ccc([C@@H]2CC=C(C(=O)O)[C@H](c3ccc(Cl)cc3)N2S(=O)(=O)c2ccccc2C)cc1`: 80%; `COc1ccc([C@@H]2C[C@@H](SC3CCCC3)[C@H](C(=O)O)CN2S(=O)(=O)c2ccc(C)cc2)cc1OC`: 112%.
Consider `CCCS[C@@H]1C[C@@H](c2ccc(OC)cc2)N(S(=O)(=O)c2ccc(Cl)cc2)C[C@H]1C(=O)O`, for which the Activity stood at 72.8%.
Next, `CCCCCCS[C@@H]1C[C@@H](c2ccc(Cl)cc2)N(S(=O)(=O)c2ccccc2C)C[C@H]1C(=O)O`: 66.3%.
Take `COc1ccc([C@@H]2CC=C(C(=O)O)[C@H](c3cccc(Cl)c3)N2S(=O)(=O)c2ccc(Cl)cc2)cc1`: the Activity was 53.2%.
For `Cc1ccc([C@H]2C(C(=O)O)=CC[C@@H](c3ccc(F)cc3)N2S(=O)(=O)c2ccc(C)cc2)cc1` the value was 54.8%; for `COc1cc([C@@H]2C[C@@H](SCc3ccccc3)[C@H](C(=O)O)CN2S(=O)(=O)c2ccc(C)cc2)cc(OC)c1OC`, 63.7%; for `Cc1ccc(S(=O)(=O)N2[C@@H](c3ccc(C(C)(C)C)cc3)C(C(=O)O)=CC[C@H]2c2ccccc2)cc1`, 75.2%.
For `Cc1ccc([C@@H]2C[C@@H](SCCC(C)C)[C@H](C(=O)O)CN2S(=O)(=O)c2ccccc2)cc1` the value was 79.3%.
For `Cc1ccc(S(=O)(=O)N2C[C@@H](C(=O)O)[C@H](SCCC(C)C)C[C@H]2c2ccccc2F)cc1` the value was 58.4%.
As to `COc1ccc(S[C@@H]2C[C@@H](c3ccc4c(c3)OCO4)N(S(=O)(=O)c3ccc(C)cc3)C[C@H]2C(=O)O)cc1`, the Activity was 100%.
Next, `Cc1ccc([C@@H]2C[C@@H](SCc3ccc(C(C)(C)C)cc3)[C@H](C(=O)O)CN2S(=O)(=O)c2ccc(Cl)cc2)cc1`: 62%.
For `CCS[C@@H]1C[C@@H](c2ccccc2)N(S(=O)(=O)c2ccc(C)cc2)C[C@H]1C(=O)O`, the Activity is 94.8%.
Next, `COc1ccc([C@@H]2CC=C(C(=O)O)[C@H](c3ccc(F)cc3)N2S(=O)(=O)c2ccc(C)cc2)cc1`: 72.9%; `COc1cccc([C@@H]2CC=C(C(=O)O)[C@H](c3ccc(C)cc3)N2S(=O)(=O)c2ccc(C)cc2)c1`: 63.1%; `COc1ccc([C@@H]2C[C@@H](SCC(C)C)[C@H](C(=O)O)CN2S(=O)(=O)c2ccccc2C)cc1`: 79.7%.
Next, `Cc1ccc([C@@H]2CC=C(C(=O)O)[C@H](c3ccc(C(C)(C)C)cc3)N2S(=O)(=O)c2ccccc2C)cc1`: 80.9%.
For `CCCS[C@@H]1C[C@@H](c2ccc(C)cc2)N(S(=O)(=O)c2ccccc2C)C[C@H]1C(=O)O`, the Activity stood at 99.4%.
`COc1cccc([C@@H]2C[C@@H](Sc3ccccc3)[C@H](C(=O)O)CN2S(=O)(=O)c2ccc(C)cc2)c1`: the Activity came out at 86.1%.
Next, `C=CCS[C@@H]1C[C@@H](c2ccc(CC)cc2)N(S(=O)(=O)c2ccc(C)cc2)C[C@H]1C(=O)O`: 89.6%.
For `Cc1ccc(S(=O)(=O)N2C[C@@H](C(=O)O)[C@H](SCc3ccc(C(C)(C)C)cc3)C[C@H]2c2cccc(Cl)c2)cc1` the value was 99%.
Next, `COc1ccc(S[C@@H]2C[C@@H](c3cccc(Cl)c3)N(S(=O)(=O)c3ccc(C)cc3)C[C@H]2C(=O)O)cc1`: 93.3%; `Cc1ccc([C@H]2C(C(=O)O)=CC[C@@H](c3cccc(Br)c3)N2S(=O)(=O)c2ccc(C)cc2)cc1`: 67.4%.
Regarding `COc1ccc([C@@H]2C[C@@H](SCc3ccc(Cl)cc3)[C@H](C(=O)O)CN2S(=O)(=O)c2ccc(C)cc2)cc1`, the Activity was determined as 40.7%.
With `Cc1ccc(S(=O)(=O)N2[C@@H](c3ccc(F)cc3)C(C(=O)O)=CC[C@H]2c2ccc(C(C)C)cc2)cc1`, the Activity came out at 50.9%.
For `Cc1ccc([C@@H]2C[C@@H](SCc3ccccc3)[C@H](C(=O)O)CN2S(=O)(=O)c2ccccc2)cc1` the value was 47.4%.
For `CCS[C@@H]1C[C@@H](c2ccc(C)cc2)N(S(=O)(=O)c2ccc(Cl)cc2)C[C@H]1C(=O)O` the value was 58.3%.
Next, `Cc1ccc(S(=O)(=O)N2[C@@H](c3cccc(Cl)c3)C(C(=O)O)=CC[C@H]2c2ccc(Cl)cc2)cc1`: 59.2%; `Cc1ccc([C@@H]2CC=C(C(=O)O)[C@H](c3ccc(C(C)(C)C)cc3)N2S(=O)(=O)c2ccc(C)cc2)cc1`: 85.5%.
For the compound `COc1ccc([C@@H]2CC=C(C(=O)O)[C@H](c3cccc(C)c3)N2S(=O)(=O)c2ccc(C)cc2)cc1`, the Activity stood at 67.3%.
With `CC(C)(C)c1ccc([C@H]2C(C(=O)O)=CC[C@@H](c3ccc(Cl)cc3)N2S(C)(=O)=O)cc1`, the Activity was 60.4%.
Turning to `COc1ccc([C@@H]2C[C@@H](SCc3ccc(C(C)(C)C)cc3)[C@H](C(=O)O)CN2S(=O)(=O)c2ccccc2)cc1`, the Activity was 53%.
For `Cc1ccc(S(=O)(=O)N2[C@@H](c3cccc(Br)c3)C(C(=O)O)=CC[C@H]2c2ccc3c(c2)OCO3)cc1` the value was 75.1%.
For `COc1ccc([C@@H]2CC=C(C(=O)O)[C@H](c3ccc(C)cc3)N2S(=O)(=O)c2ccccc2)cc1`, the Activity stood at 88.2%.
For `Cc1ccc([C@@H]2CC=C(C(=O)O)[C@H](c3ccc(F)cc3)N2S(=O)(=O)c2ccc(C)cc2)cc1` the value was 67.7%; for `Cc1ccc([C@@H]2CC=C(C(=O)O)[C@H](c3cccc(F)c3)N2S(=O)(=O)c2ccc(C)cc2)cc1`, 77.3%.
For `Cc1ccc([C@H]2C(C(=O)O)=CC[C@@H](c3cccc(C)c3)N2S(=O)(=O)c2ccc(C)cc2)cc1` the value was 82.4%; for `COc1cccc([C@@H]2CC=C(C(=O)O)[C@H](c3ccc(Br)cc3)N2S(=O)(=O)c2ccc(C)cc2)c1`, 65.8%.
As for `CS(=O)(=O)N1[C@@H](c2ccc(F)cc2)C(C(=O)O)=CC[C@H]1c1ccccc1`, the Activity is 67.2%.
Next, `Cc1ccc(S(=O)(=O)N2[C@@H](c3ccc(F)cc3)C(C(=O)O)=CC[C@H]2c2cccc(F)c2)cc1`: 63.4%; `COc1cc([C@@H]2C[C@@H](Sc3ccc(C)cc3)[C@H](C(=O)O)CN2S(=O)(=O)c2ccc(C)cc2)cc(OC)c1OC`: 95.6%.
For `COc1cccc([C@@H]2C[C@@H](Sc3ccc(Cl)cc3)[C@H](C(=O)O)CN2S(=O)(=O)c2ccc(C)cc2)c1`, the Activity amounted to 60.3%.
Next, `COc1ccc([C@@H]2C[C@@H](SCc3ccccc3)[C@H](C(=O)O)CN2S(=O)(=O)c2ccccc2)cc1`: 57.3%; `C=CCS[C@@H]1C[C@@H](c2ccc(OC)cc2)N(S(=O)(=O)c2ccc(C)cc2)C[C@H]1C(=O)O`: 108%.
For `COc1ccc(S[C@@H]2C[C@@H](c3ccc(OC)cc3)N(S(=O)(=O)c3ccc(C)cc3)C[C@H]2C(=O)O)cc1` the value was 97%; for `Cc1ccc([C@H]2C(C(=O)O)=CC[C@@H](c3ccc(C#N)cc3)N2S(=O)(=O)c2ccc(C)cc2)cc1`, 90.9%; for `Cc1ccc(S(=O)(=O)N2[C@@H](c3cccc(Cl)c3)C(C(=O)O)=CC[C@H]2c2cccc(C)c2)cc1`, 57.6%.
Take `Cc1ccc([C@@H]2CC=C(C(=O)O)[C@H](c3cccc(Br)c3)N2S(=O)(=O)c2ccccc2)cc1`: the Activity is 67.2%.
In the case of `Cc1ccc(S(=O)(=O)N2[C@@H](c3cccc(Cl)c3)C(C(=O)O)=CC[C@H]2c2ccc(C#N)cc2)cc1`, the Activity was found to be 70.9%.
